Source: the kinase profiling compilation of Christmann-Franck et al. (2016)

Legend:
Assay in all cases: KINOMEscan competition binding
Conditions in all cases: compound 10.0 µM
[1] = biological target: FGFR4 (human) (UniProt P22455)
[2] = biological target: MAP3K11 (human) (UniProt Q16584)
[3] = biological target: RPS6KA6 KD2 (human) (UniProt Q9UK32)
[4] = tested on: EGFR (human), P00533 [746-750 del]
[5] = biological target: TGFBR2 (human) (UniProt P37173)
[6] = biological target: RPS6KA3 KD1 (human) (UniProt P51812)
[7] = biological target: CSNK1G3 (human) (UniProt Q9Y6M4)
[8] = biological target: PRKCH (human) (UniProt P24723)
[9] = biological target: DAPK2 (human) (UniProt Q9UIK4)
[10] = biological target: PKMYT1 (human) (UniProt Q99640)
[11] = biological target: DAPK3 (human) (UniProt O43293)
Sequence of DAPK3 (human) (O43293 whole entry, looked up): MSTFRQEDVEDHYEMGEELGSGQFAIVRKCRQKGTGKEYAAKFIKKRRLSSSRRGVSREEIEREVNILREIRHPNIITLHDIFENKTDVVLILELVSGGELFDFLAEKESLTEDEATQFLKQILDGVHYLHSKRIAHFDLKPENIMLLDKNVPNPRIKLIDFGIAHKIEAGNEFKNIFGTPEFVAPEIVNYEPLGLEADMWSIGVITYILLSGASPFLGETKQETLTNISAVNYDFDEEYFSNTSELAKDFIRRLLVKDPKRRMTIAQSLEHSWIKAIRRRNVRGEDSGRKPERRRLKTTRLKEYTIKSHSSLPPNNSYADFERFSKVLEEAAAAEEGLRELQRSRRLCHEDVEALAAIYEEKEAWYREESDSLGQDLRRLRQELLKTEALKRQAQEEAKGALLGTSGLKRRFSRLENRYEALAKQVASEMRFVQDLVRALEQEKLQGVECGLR

[12] = biological target: CDK15 (human) (UniProt Q96Q40)
[13] = biological target: MAP3K15 (human) (UniProt Q6ZN16)
[14] = biological target: MAPK8 (human) (UniProt P45983)
[15] = biological target: PRKX (human) (UniProt P51817)
Sequence of PRKX (human) (P51817 whole entry, looked up): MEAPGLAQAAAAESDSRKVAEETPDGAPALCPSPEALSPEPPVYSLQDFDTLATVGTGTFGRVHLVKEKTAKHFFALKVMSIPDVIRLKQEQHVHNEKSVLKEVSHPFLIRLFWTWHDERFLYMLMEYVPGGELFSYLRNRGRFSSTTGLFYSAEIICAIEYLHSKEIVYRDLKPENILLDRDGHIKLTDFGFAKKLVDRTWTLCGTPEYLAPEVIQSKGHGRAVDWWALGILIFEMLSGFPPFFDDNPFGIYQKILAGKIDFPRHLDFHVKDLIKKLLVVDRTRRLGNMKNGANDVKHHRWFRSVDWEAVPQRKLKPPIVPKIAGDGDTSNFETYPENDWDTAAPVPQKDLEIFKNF

[16] = biological target: DDR2 (human) (UniProt Q16832)
[17] = biological target: LATS1 (human) (UniProt O95835)
Sequence of LATS1 (human) (O95835 whole entry, looked up): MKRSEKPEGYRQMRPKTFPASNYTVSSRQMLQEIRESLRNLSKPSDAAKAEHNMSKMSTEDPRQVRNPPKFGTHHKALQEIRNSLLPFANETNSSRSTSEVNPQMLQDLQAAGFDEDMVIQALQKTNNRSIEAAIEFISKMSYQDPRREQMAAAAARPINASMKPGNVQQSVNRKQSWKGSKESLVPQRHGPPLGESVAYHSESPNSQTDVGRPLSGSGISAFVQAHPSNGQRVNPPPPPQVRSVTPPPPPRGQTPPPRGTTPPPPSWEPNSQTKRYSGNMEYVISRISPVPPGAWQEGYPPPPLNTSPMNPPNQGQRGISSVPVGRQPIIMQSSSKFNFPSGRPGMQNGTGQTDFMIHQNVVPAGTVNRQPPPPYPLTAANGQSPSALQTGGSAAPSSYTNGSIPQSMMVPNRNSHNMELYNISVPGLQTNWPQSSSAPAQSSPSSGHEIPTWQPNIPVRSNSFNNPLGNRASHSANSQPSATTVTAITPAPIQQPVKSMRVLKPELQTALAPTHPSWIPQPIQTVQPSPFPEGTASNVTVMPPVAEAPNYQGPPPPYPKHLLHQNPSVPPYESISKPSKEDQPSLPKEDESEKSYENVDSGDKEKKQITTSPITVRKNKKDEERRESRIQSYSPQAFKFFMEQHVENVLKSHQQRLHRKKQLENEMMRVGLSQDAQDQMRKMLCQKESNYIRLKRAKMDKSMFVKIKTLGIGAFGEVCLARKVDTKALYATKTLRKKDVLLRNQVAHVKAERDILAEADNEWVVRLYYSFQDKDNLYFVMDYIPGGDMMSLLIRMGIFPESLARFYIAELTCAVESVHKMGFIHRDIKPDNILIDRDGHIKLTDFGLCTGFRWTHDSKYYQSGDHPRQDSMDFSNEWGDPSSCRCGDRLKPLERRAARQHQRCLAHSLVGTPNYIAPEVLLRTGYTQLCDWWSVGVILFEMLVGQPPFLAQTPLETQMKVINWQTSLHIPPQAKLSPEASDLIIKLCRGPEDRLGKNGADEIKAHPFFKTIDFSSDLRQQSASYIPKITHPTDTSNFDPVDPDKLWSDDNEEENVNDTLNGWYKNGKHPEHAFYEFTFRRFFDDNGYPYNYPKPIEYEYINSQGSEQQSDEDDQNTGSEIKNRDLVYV

[18] = biological target: CDC2L2 (human) (UniProt Q9UQ88)
[19] = biological target: CAMK1G (human) (UniProt Q96NX5)
Sequence of CAMK1G (human) (Q96NX5 whole entry, looked up): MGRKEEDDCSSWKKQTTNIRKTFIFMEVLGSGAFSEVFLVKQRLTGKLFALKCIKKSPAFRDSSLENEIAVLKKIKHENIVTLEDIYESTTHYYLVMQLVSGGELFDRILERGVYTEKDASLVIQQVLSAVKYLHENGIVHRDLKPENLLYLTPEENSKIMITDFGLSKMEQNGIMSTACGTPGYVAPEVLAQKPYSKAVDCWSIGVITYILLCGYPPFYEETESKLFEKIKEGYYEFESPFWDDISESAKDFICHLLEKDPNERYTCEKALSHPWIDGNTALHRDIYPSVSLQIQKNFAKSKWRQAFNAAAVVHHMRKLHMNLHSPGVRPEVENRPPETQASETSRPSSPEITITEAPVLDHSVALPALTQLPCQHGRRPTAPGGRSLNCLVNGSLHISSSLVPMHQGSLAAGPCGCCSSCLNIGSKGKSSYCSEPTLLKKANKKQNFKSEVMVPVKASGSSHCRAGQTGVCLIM

[20] = biological target: PRKD2 (human) (UniProt Q9BZL6)
[21] = biological target: MAPK14 (human) (UniProt Q16539)
Sequence of MAPK14 (human) (Q16539 whole entry, looked up): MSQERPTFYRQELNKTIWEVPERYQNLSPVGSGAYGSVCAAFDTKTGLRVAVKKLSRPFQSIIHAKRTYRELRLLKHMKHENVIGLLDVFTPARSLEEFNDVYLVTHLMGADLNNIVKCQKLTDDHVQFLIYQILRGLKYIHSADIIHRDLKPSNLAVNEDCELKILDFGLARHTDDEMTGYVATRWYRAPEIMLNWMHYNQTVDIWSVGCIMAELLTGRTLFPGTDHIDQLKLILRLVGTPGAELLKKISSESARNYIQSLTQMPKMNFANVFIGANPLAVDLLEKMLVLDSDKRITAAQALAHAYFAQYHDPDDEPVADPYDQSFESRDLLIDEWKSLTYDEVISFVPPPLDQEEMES

[22] = biological target: MAPK11 (human) (UniProt Q15759)
[23] = biological target: PRKCE (human) (UniProt Q02156)
Sequence of PRKCE (human) (Q02156 whole entry, looked up): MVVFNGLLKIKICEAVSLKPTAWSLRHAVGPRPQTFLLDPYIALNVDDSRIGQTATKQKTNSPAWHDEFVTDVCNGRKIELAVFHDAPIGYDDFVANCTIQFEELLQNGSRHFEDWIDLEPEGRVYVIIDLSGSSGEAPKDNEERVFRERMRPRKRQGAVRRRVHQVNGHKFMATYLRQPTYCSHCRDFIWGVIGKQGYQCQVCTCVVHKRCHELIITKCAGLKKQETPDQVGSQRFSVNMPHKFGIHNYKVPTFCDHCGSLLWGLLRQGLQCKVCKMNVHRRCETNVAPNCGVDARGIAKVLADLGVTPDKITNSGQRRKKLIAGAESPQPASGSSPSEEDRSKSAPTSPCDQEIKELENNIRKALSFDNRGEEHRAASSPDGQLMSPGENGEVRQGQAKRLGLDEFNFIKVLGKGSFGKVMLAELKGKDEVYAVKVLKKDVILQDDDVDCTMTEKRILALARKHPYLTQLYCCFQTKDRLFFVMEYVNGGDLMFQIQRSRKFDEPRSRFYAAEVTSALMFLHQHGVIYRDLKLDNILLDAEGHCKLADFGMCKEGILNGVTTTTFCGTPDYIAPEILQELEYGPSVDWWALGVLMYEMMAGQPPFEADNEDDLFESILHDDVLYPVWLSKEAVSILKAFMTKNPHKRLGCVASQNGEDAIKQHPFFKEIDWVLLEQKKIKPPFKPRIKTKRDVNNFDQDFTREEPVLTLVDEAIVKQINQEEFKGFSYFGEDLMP

[24] = biological target: CSNK1A1 (human) (UniProt P48729)
[25] = biological target: RPS6KA6 KD1 (human) (UniProt Q9UK32)
Sequence of RPS6KA6 KD1 (human) (Q9UK32 whole entry, looked up): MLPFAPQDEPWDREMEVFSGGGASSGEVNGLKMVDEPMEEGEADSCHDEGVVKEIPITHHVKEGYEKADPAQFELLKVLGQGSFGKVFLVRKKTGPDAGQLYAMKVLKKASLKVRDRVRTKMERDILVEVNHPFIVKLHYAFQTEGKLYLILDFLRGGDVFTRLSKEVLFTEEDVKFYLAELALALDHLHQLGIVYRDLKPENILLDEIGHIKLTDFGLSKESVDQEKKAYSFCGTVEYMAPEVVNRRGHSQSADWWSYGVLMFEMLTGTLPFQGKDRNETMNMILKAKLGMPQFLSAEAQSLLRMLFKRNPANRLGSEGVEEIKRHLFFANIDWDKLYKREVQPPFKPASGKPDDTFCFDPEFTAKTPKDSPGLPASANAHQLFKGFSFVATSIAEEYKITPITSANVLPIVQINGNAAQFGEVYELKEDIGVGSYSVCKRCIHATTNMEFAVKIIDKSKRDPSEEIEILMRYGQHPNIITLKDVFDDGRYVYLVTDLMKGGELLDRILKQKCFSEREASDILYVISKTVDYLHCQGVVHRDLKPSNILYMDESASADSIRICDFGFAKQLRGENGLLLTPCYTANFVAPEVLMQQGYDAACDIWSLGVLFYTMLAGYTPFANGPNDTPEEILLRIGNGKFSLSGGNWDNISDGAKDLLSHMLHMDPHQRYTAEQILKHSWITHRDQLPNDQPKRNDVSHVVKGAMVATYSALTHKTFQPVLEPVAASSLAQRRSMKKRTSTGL

[26] = biological target: RAF1 (human) (UniProt P04049)
[27] = biological target: DCLK3 (human) (UniProt Q9C098)
[28] = biological target: EPHB3 (human) (UniProt P54753)
[29] = biological target: DYRK1A (human) (UniProt Q13627)
[30] = tested on: EGFR (human), P00533 [G719C]
[31] = biological target: MAPK10 (human) (UniProt P53779)
[32] = biological target: CIT (human) (UniProt O14578)
[33] = biological target: STK16 (human) (UniProt O75716)
[34] = biological target: CDKL2 (human) (UniProt Q92772)
[35] = biological target: TSSK1B (human) (UniProt Q9BXA7)
[36] = biological target: DMPK (human) (UniProt Q09013)
Sequence of DMPK (human) (Q09013 whole entry, looked up): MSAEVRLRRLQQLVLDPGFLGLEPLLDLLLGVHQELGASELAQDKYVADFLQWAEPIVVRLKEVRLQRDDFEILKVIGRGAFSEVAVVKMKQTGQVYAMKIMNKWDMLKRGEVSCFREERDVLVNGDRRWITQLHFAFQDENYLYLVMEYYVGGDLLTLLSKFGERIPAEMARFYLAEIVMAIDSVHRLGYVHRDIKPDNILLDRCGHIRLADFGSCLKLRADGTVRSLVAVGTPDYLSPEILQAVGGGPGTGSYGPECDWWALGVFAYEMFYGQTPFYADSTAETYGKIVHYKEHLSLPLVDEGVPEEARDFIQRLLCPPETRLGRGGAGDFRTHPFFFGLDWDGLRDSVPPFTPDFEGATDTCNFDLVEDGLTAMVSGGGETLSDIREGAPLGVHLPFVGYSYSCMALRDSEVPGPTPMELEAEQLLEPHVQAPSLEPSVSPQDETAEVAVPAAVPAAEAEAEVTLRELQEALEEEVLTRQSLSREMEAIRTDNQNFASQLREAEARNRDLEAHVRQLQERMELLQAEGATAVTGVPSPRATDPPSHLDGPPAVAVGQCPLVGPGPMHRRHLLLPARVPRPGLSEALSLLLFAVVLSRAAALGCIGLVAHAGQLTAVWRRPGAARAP

[37] = biological target: MINK1 (human) (UniProt Q8N4C8)
[38] = biological target: EPHA2 (human) (UniProt P29317)
[39] = biological target: SRPK3 (human) (UniProt Q9UPE1)
[40] = biological target: FGFR1 (human) (UniProt P11362)
[41] = biological target: CAMK1D (human) (UniProt Q8IU85)
[42] = biological target: BRSK1 (human) (UniProt Q8TDC3)

Sequence of RPS6KA6 KD2 (human) (Q9UK32 whole entry, looked up): as the sequence (Q9UK32 whole entry, looked up) above

Cc1cc([C@@H](C)Nc2ccccc2C(=O)O)c2nc(N3CCOCC3)cc(=O)n2c1
kinase still bound, per cent of control [1]: 40%
kinase still bound, per cent of control [2]: 95%
kinase still bound, per cent of control [3]: 71%
kinase still bound, per cent of control [4]: 100%
kinase still bound, per cent of control [5]: 100%
kinase still bound, per cent of control [6]: 100%
kinase still bound, per cent of control [7]: 95%
kinase still bound, per cent of control [8]: 95%
kinase still bound, per cent of control [9]: 74%
kinase still bound, per cent of control [10]: 99%
kinase still bound, per cent of control [11]: 78%
kinase still bound, per cent of control [12]: 100%
kinase still bound, per cent of control [13]: 55%
kinase still bound, per cent of control [14]: 100%
kinase still bound, per cent of control [15]: 100%
kinase still bound, per cent of control [16]: 100%
kinase still bound, per cent of control [17]: 60%
kinase still bound, per cent of control [18]: 100%
kinase still bound, per cent of control [19]: 100%
kinase still bound, per cent of control [20]: 97%
kinase still bound, per cent of control [21]: 100%
kinase still bound, per cent of control [22]: 100%
kinase still bound, per cent of control [23]: 100%
kinase still bound, per cent of control [24]: 100%
kinase still bound, per cent of control [25]: 80%
kinase still bound, per cent of control [26]: 97%
kinase still bound, per cent of control [27]: 100%
kinase still bound, per cent of control [28]: 100%
kinase still bound, per cent of control [29]: 99%
kinase still bound, per cent of control [30]: 100%
kinase still bound, per cent of control [31]: 66%
kinase still bound, per cent of control [32]: 88%
kinase still bound, per cent of control [33]: 99%
kinase still bound, per cent of control [34]: 100%
kinase still bound, per cent of control [35]: 79%
kinase still bound, per cent of control [36]: 95%
kinase still bound, per cent of control [37]: 100%
kinase still bound, per cent of control [38]: 99%
kinase still bound, per cent of control [39]: 83%
kinase still bound, per cent of control [40]: 97%
kinase still bound, per cent of control [41]: 93%
kinase still bound, per cent of control [42]: 100%
